Laboratory results reported in US4918070A, “Cephalosporin derivatives and antibacterial agents” (Banyu Pharmaceutical Co., Ltd., priority 1987, dated 1990).
≈ marks a conversion by molar mass, not a printed value. Read-outs that look alike come from different tables or passages of the source.

Legend:
Type in all cases: cell-based
E. cloacae 963 = assay: in vitro antibacterial activity, agar plate dilution method (MIC); settings: for MIC: read-out: Minimum Inhibitory Concentration (MIC)
Procedure: (§1) One platinum loopfull of each test microorganism incubated overnight in Mueller Hinton broth, was inoculated to Mueller Hinton agar (inoculum size: 10^6 CFU/ml). Such culture media containing various antibiotics in various concentrations were prepared. After incubation at 37° C. for 16 hours, the minimum inhibitory concentrations (MIC: μg/ml) were measured.

E. coli NIHJ JC2 = assay: as above; settings: for MIC: Escherichia coli, read-out: Minimum Inhibitory Concentration (MIC)
Procedure: as §1

K. pneumoniae PCI-602 = assay: as above; settings: for MIC: Klebsiella pneumoniae, read-out: Minimum Inhibitory Concentration (MIC)
Procedure: as §1

P. vulgaris HX-19 = assay: as above; settings: for MIC: Proteus vulgaris, read-out: Minimum Inhibitory Concentration (MIC)
Procedure: as §1

S. marcescens IAM 1184 = assay: as above; settings: for MIC: Serratia marcescens, read-out: Minimum Inhibitory Concentration (MIC)
Procedure: as §1

S. aureus 109P NIHJ-JCl = assay: in vitro antibacterial activity, agar plate dilution method (MIC), second part of Table 1; settings: Staphylococcus aureus, 109PNIHJJCL, read-out: Minimum Inhibitory Concentration (MIC)
Procedure: as §1

S. aureus 209P NIHJ-JCl = assay: in vitro antibacterial activity, agar plate dilution method (MIC); settings: for MIC: Staphylococcus aureus, read-out: Minimum Inhibitory Concentration (MIC)
Procedure: as §1

[1] = Enterobacter cloacae, E. cloacae 963, 10^6 CFU/ml, MH agar, 37° C., 16 hours
[2] = NIHJJC2, E. coli NIHJ JC2, 10^6 CFU/ml, MH agar, 37° C., 16 hours
[3] = PCI602, K. pneumoniae PCI-602, 10^6 CFU/ml, MH agar, 37° C., 16 hours
[4] = HX19, P. vulgaris HX-19, 10^6 CFU/ml, MH agar, 37° C., 16 hours
[5] = IAM1184, S. marcescens IAM 1184, 10^6 CFU/ml, MH agar, 37° C., 16 hours
[6] = S. aureus 109P NIHJ-JCl, 10^6 CFU/ml, MH agar, 37° C., 16 hours
[7] = Enterobacter cloacae, 963, 16 h
[8] = S. aureus 209P NIHJ-JCl, 10^6 CFU/ml, MH agar, 37° C., 16 hours

Row | MIC (E. cloacae 963; [1]) [µg/mL] | MIC (E. coli NIHJ JC2; [2]) [µg/mL] | MIC (K. pneumoniae PCI-602; [3]) [µg/mL] | MIC (P. vulgaris HX-19; [4]) [µg/mL] | MIC (S. marcescens IAM 1184; [5]) [µg/mL] | SMILES | MIC (E. coli NIHJ JC2; NIHJJC2, 16 h) [µg/mL] | MIC (K. pneumoniae PCI-602; PCI602, 16 h) [µg/mL] | MIC (S. aureus 209P NIHJ-JCl; 209P, 16 h) [µg/mL] | MIC (S. marcescens IAM 1184; IAM1184, 16 h) [µg/mL] | other results
1 | 0.039 | 0.039 | 0.025 | 0.39 | 0.1 | C[n+]1ccc(COC2=C(C(=O)[O-])N3C(=O)[C@@H](NC(=O)/C(=N\OC(C(=O)O)c4ccc(O)c(O)c4)c4csc(N)n4)[C@H]3SC2)cc1 (single isomer, unassigned) [Example 38, Sodium 7β-[2-(2-aminothiazol-4-yl)-(Z)-2-(α-carboxylato-3,4-dihydroxybenzyloxyimino)acetamido]-3-(1-methyl-4-pyridiniomethoxy)-3-cephem-4-carboxylate (diastereisomer A)] | – | – | – | – | MIC (S. aureus 109P NIHJ-JCl; [6]): 0.039 µg/mL
2 | – | – | – | – | – | CO/N=C(\C(=O)N[C@@H]1C(=O)N2C(C(=O)[O-])=C(OCc3ccncc3)CS[C@H]12)c1csc(N)n1.[Na+] [Example 1, Sodium 7β-[2-(2-aminothiazol-4-yl)-(Z)-2-methoxyiminoacetamido]-3-(4-pyridylmethoxy)-3-cephem-4-carboxylate] | 0.2 | < 0.006 | 0.78 | 0.1 | MIC (E. cloacae 963; [7]): 0.2 µg/mL; MIC (P. vulgaris HX-19; HX19, 16 h): 0.05 µg/mL
3 | – | – | – | – | – | CO/N=C(\C(=O)N[C@@H]1C(=O)N2C(C(=O)[O-])=C(OCc3ccc(C#N)cc3)CS[C@H]12)c1csc(N)n1.[Na+] [Example 12, Sodium 7β-[2-(2-aminothiazol-4-yl)-(Z)-2-methoxyiminoacetamido]-3-(4-cyanobenzyloxy)-3-cephem-4-carboxylate] | 0.78 | 0.0125 | 0.78 | 0.39 | MIC (E. cloacae 963; [7]): 0.78 µg/mL; MIC (P. vulgaris HX-19; HX19, 16 h): 0.025 µg/mL
4 | 0.2 | 0.39 | < 0.006 | 0.05 | 0.1 | CO/N=C(\C(=O)N[C@@H]1C(=O)N2C(C(=O)O)=C(OCc3ccc(C(N)=O)cc3)CS[C@H]12)c1csc(N)n1 [Example 14, Sodium 7β-[2-(2-aminothiazol-4-yl)-(Z)-2-methoxyiminoacetamido]-3-(4-carbamoylbenzVloxy)-3-cephem-4-carboxylate] | – | – | – | – | MIC (S. aureus 209P NIHJ-JCl; [8]): 3.12 µg/mL
5 | – | – | – | – | – | CO/N=C(\C(=O)N[C@@H]1C(=O)N2C(C(=O)[O-])=C(OCc3nc(C)cs3)CS[C@H]12)c1csc(N)n1.[Na+] [Example 16, Sodium 7β-[2-(2-aminothiazol-4-yl)-(Z)-2-methoxyiminoacetamido]-3-(4-methylthiazol-2-ylmethoxy)-3-cephem-4-carboxylate] | 0.2 | < 0.006 | 3.12 | 0.2 | MIC (E. cloacae 963; [7]): 0.2 µg/mL; MIC (P. vulgaris HX-19; HX19, 16 h): < 0.006 µg/mL
6 | – | – | – | – | – | CO/N=C(\C(=O)N[C@@H]1C(=O)N2C(C(=O)[O-])=C(c3csnn3)CS[C@H]12)c1csc(N)n1.[Na+] [Example 18, Sodium 7δ-[2-(2-aminothiazol-4-yl)-(Z)-2-methoxyiminoacetamido]-3-(1,2,3-thiadiazol-4-yl)-3-cephem-4-carboxylate] | – | – | – | – | Minimum Inhibitory Concentration (MIC) (E. cloacae 963; E. cloacae 963, 10^6 CFU/ml, MH agar, 37° C., 16 hours): 0.390 µg/mL; Minimum Inhibitory Concentration (MIC) (E. coli NIHJ JC2; E. coli NIHJ JC2, 10^6 CFU/ml, MH agar, 37° C., 16 hours): 0.390 µg/mL; Minimum Inhibitory Concentration (MIC) (K. pneumoniae PCI-602; K. pneumoniae PCI-602, 10^6 CFU/ml, MH agar, 37° C., 16 hours): 0.0125 µg/mL; Minimum Inhibitory Concentration (MIC) (P. vulgaris HX-19; P. vulgaris HX-19, 10^6 CFU/ml, MH agar, 37° C., 16 hours): 0.100 µg/mL; Minimum Inhibitory Concentration (MIC) (S. aureus 209P NIHJ-JCl; [8]): 3.12 µg/mL; Minimum Inhibitory Concentration (MIC) (S. marcescens IAM 1184; S. marcescens IAM 1184, 10^6 CFU/ml, MH agar, 37° C., 16 hours): 0.390 µg/mL
7 | – | – | – | – | – | NC(=O)c1ccc(COC2=C(C(=O)[O-])N3C(=O)[C@@H](NC(=O)/C(=N\OCC(=O)[O-])c4csc(N)n4)[C@H]3SC2)cc1.[Na+].[Na+] [Example 22, Disodium 7β-[2-(2-aminothiazol-4-yl)-(Z)-2-carboxylatomethoxyiminoacetamido]-3-(4-carbamoylbenzyloxy)-3-cephem-4-carboxylate] | 0.05 | 0.025 | 50 | 0.0125 | MIC (E. cloacae 963; [7]): 0.1 µg/mL; MIC (P. vulgaris HX-19; HX19, 16 h): 0.025 µg/mL
8 | 0.1 (≈ 0.198 µM) | 0.1 (≈ 0.198 µM) | 0.025 (≈ 0.0495 µM) | 0.2 (≈ 0.396 µM) | 0.05 (≈ 0.0991 µM) | CO/N=C(\C(=O)N[C@@H]1C(=O)N2C(C(=O)[O-])=C(OCc3cc[n+](C)cc3)CS[C@H]12)c1csc(N)n1 [Example 32, 7β-[2-(2-aminothiazol-4-yl)-(Z)-2-methoxyiminoacetamido]-3-(1-methyl-4-pyridiniomethoxy)-3-cephem-4-carboxylate] | – | – | – | – | MIC (S. aureus 109P NIHJ-JCl; [6]): 0.039 µg/mL (≈ 0.0773 µM)
9 | 0.39 | 0.39 | 0.05 | 0.0125 | 0.1 | C[n+]1ccc(COC2=C(C(=O)[O-])N3C(=O)[C@@H](NC(=O)/C(=N\OCc4ccccc4CC(=O)O)c4csc(N)n4)[C@H]3SC2)cc1 [Example 40, Sodium 7β-[2-(2-aminothiazol-4-yl)-(Z)-2-(2-carboxylatomethylbenzyloxyimino)acetamido]-3-(1-methyl-4-pyridiniomethoxy)-3-cephem-4-carboxylate] | – | – | – | – | MIC (S. aureus 109P NIHJ-JCl; [6]): 1.56 µg/mL
10 | 0.2 (≈ 0.396 µM) | 0.39 (≈ 0.773 µM) | 0.05 (≈ 0.0991 µM) | 0.2 (≈ 0.396 µM) | 0.2 (≈ 0.396 µM) | CO/N=C(\C(=O)N[C@@H]1C(=O)N2C(C(=O)[O-])=C(OCc3cccc[n+]3C)CS[C@H]12)c1csc(N)n1 [Example 44, 7β-[2-(2-aminothiazol-4-yl)-(Z)-2-methoxyiminoacetamido]-3-(1-methyl-2-pyridiniomethoxy)-3-cephem-4-carboxylate] | – | – | – | – | MIC (S. aureus 109P NIHJ-JCl; [6]): 0.2 µg/mL (≈ 0.396 µM)

Row | SMILES | MIC (E. cloacae 963; [1]) [µg/mL] | MIC (E. coli NIHJ JC2; [2]) [µg/mL] | MIC (K. pneumoniae PCI-602; [3]) [µg/mL] | MIC (P. vulgaris HX-19; [4]) [µg/mL] | MIC (S. marcescens IAM 1184; [5]) [µg/mL] | MIC (E. coli NIHJ JC2; NIHJJC2, 16 h) [µg/mL] | MIC (K. pneumoniae PCI-602; PCI602, 16 h) [µg/mL] | MIC (S. aureus 209P NIHJ-JCl; 209P, 16 h) [µg/mL] | MIC (S. marcescens IAM 1184; IAM1184, 16 h) [µg/mL] | other results
11 | CC(C)(O/N=C(\C(=O)N[C@@H]1C(=O)N2C(C(=O)O)=C(OCc3ccncc3)CS[C@H]12)c1csc(N)n1)C(=O)O [Example 4, Disodium 7β-[2-(2-aminothiaxol-4-yl)-(Z)-2-(1-carboxylato-1-methylethoxyimino)acetamido]-3-(4-pyridylmethoxy)-3-cephem-4-carboxylate] | 0.039 | 0.39 | 0.05 | 0.0125 | – | – | – | 12.5 | 0.025 | –
12 | C[n+]1ccc(COC2=C(C(=O)[O-])N3C(=O)[C@@H](NC(=O)/C(=N\OC(C)(C)C(=O)O)c4csc(N)n4)[C@H]3SC2)cc1 [Example 36, Sodium 7β-[2-(2-aminothiazol-4-yl)-(Z)-2-(1-carboxylato-1-methylethoxyimino)acetamido]-3-(1-methy-4-pyridiniomethoxy)-3-cephem-4-carboxylate] | 0.05 | 0.05 | 0.0125 | 0.05 | 0.025 | – | – | – | – | MIC (S. aureus 109P NIHJ-JCl; 16 h): 6.25 µg/mL
13 | C=C(O/N=C(\C(=O)N[C@@H]1C(=O)N2C(C(=O)[O-])=C(OCc3cc[n+](C)cc3)CS[C@H]12)c1csc(N)n1)C(=O)O [Example 37, Sodium 7β-[2-(2-aminothiazol-4-yl)-(Z)-2-(1-carboxylatovinyloxyimino)acetamido]-3-(1-methyl-4-pyridiniomethoxy)-3-cephem-4-carboxylate] | 0.025 | – | – | 0.025 | < 0.006 | 0.025 | < 0.006 | – | – | MIC (S. aureus 109P NIHJ-JCl; 16 h): 1.56 µg/mL
14 | CCO/N=C(\C(=O)N[C@@H]1C(=O)N2C(C(=O)[O-])=C(OCc3cc[n+](CC(=O)O)cc3)CS[C@H]12)c1csc(N)n1 [Example 51, Sodium 7β-[2-(2-aminothiazol-4-yl)-(Z)-2-ethoxyiminoacetamido]-3-(1-carboxylatomethyl-4-pyridiniomethoxy)-3-cephem-4-carboxylate] | 0.1 | 0.2 | 0.025 | 0.05 | 0.1 | – | – | – | – | MIC (S. aureus 109P NIHJ-JCl; 16 h): 3.12 µg/mL
